Data on 10 compounds can be found in ChEMBL document CHEMBL5608255, “Inhibitors of the Cyclic GMP-AMP Synthase (cGAS) as Potential Treatment for Autoimmune and Inflammatory Diseases” (ACS Med Chem Lett, 2024).

The structures appear in SMILES notation. Bounds are passed on as bounds.

For test [1], the target named is T1, Cyclic GMP-AMP synthase (Homo sapiens, UniProt Q8N884). As to the kind of experiment: Inhibition of cGAS in dsDNA stimulated human Whole blood cell by measuring IFNalpha-2a production incubated for 60 mins followed by addition of double stranded DNA measured after 1350 mins by microplate reader assay. The class given is tissue-based.
T1 sequence (Q8N884 whole entry): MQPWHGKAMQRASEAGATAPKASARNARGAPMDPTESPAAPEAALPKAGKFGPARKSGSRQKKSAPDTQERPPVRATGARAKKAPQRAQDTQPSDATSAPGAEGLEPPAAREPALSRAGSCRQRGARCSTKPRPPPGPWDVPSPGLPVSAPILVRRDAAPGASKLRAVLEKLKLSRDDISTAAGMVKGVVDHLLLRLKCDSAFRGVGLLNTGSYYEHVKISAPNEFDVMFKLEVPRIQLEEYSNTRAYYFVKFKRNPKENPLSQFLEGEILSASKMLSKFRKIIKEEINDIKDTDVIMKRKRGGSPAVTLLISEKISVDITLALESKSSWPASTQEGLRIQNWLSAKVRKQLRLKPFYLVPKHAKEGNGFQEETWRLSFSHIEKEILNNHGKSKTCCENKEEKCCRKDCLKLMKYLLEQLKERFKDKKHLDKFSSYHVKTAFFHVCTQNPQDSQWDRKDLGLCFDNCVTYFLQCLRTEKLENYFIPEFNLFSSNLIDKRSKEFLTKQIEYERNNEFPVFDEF
Test [2] has as its target T1, Cyclic GMP-AMP synthase. Put plainly: Inhibition of cGAS in human THP-1 cells expressed in baculovirus infected insect cells incubated for 18 hrs by Lucia luciferase reporter assay.
The target of test [3] is T1, Cyclic GMP-AMP synthase. Put plainly: Ratio of IC50 for inhibition of cGAS in human THP-1 cells using cGAMP as substrate to IC50 for inhibition of cGAS in human THP-1 cells expressed in baculovirus infected insect cells.
Test [4] has as its target T1, Cyclic GMP-AMP synthase. As to the kind of experiment: Inhibition of N-terminal 6His-SUMO tagged human cGAS (1 to 522 residues) extracted from Escherichia coli BL21(DE3)pLysS cells using GTP/ATP as substrate by measuring cGAMP production incubated for 90 mins in presence of 45 base pair DNA by mass spectrometric analysis.

With `Cc1cccc2c1nc1n2[C@@H]2CCN(C[C@H]2C)C(=O)CCCCCC(F)(F)c2nc(c3oc4ccccc4c3n2)N2C[C@H](C[C@H]2C(=O)O)O1`, the IC50 against Cyclic GMP-AMP synthase [1] turned out to be 1580 nM; on Cyclic GMP-AMP synthase [2], 180 nM. Also, the Ratio IC50 at Cyclic GMP-AMP synthase [3] was found to be 33.
On to `C[C@H]1CN2CC[C@@H]1n1c(nc3ccccc31)O[C@H]1C[C@@H](C(=O)O)N(C1)c1nc(nc3c1oc1ccccc13)C(F)(F)CCCCC(F)(F)C2=O`, for which the results for the IC50 on Cyclic GMP-AMP synthase [1] and against Cyclic GMP-AMP synthase [2] were 8 nM and 13 nM, respectively. Moreover, the Ratio IC50 at Cyclic GMP-AMP synthase [3] amounted to 519.
In the same order, the values of `C[C@H]1CN2CC[C@@H]1n1c(nc3ccccc31)O[C@H]1C[C@@H](C(=O)O)N(C1)c1nc(nc3c1oc1cc(Cl)ccc13)C(F)(F)CCCOCC2=O` are 4 nM, 1.5 nM and greater than 6580.
In the same order, the values of `C[C@H]1CN2CC[C@@H]1n1c(nc3ccccc31)O[C@H]1C[C@@H](C(=O)O)N(C1)c1nc(nc3c1oc1ccccc13)CCCCCN(C)C2=O` are 186 nM, 500 nM and 15.
For the compound `CC(=O)[C@@H]1C[C@H]2CN1c1nc(nc3c1oc1ccccc13)CCOCCCC(=O)N1CC[C@@H]([C@@H](C)C1)n1c(nc3cc(Cl)ccc31)O2`, the IC50 was 5 nM against Cyclic GMP-AMP synthase [1], 2.8 nM at Cyclic GMP-AMP synthase [4] and 2.8 nM on Cyclic GMP-AMP synthase [2]. The Ratio IC50 at Cyclic GMP-AMP synthase [3] is greater than 3560.
As to `C[C@H]1CN2CC[C@H]1n1c(nc3ccccc31)O[C@H]1C[C@@H](C(=O)O)N(C1)c1nc(nc3c1oc1ccccc13)C(F)(F)COCCCCC2=O`, the IC50 is 1 nM against Cyclic GMP-AMP synthase [1], 2.1 nM on Cyclic GMP-AMP synthase [4] and 0.44 nM against Cyclic GMP-AMP synthase [2]. The Ratio IC50 on Cyclic GMP-AMP synthase [3] was 32100.
As for `C[C@@H]1CN2CC[C@H]1n1c(nc3ccccc31)O[C@H]1C[C@@H](C(=O)O)N(C1)c1nc(nc3c1oc1ccccc13)CCCCCOC2=O`, the IC50 was 439 nM at Cyclic GMP-AMP synthase [1] and 180 nM on Cyclic GMP-AMP synthase [2]. Moreover, the Ratio IC50 on Cyclic GMP-AMP synthase [3] worked out at 45.
In the same order, the values of `C[C@H]1CN2CC[C@@H]1n1c(nc3cc(Cl)ccc31)O[C@H]1C[C@@H](C(=O)O)N(C1)c1nc(nc3c1oc1cc(Cl)ccc13)CCOCCCC2=O` are 17 nM, 2.4 nM and 3930.
For `C[C@@H]1CN2CC[C@H]1n1c(nc3cc(Cl)ccc31)O[C@H]1C[C@@H](C(=O)O)N(C1)c1nc(nc3c1oc1ccccc13)CCOCCCC2=O` the same measures were 87 nM, 39 nM and greater than 253.
In the same order, the values of `C[C@H]1CN2CC[C@@H]1n1c(nc3cc(Cl)ccc31)O[C@H]1C[C@@H](C(=O)O)N(C1)c1nc(nc3c1oc1ccccc13)C(F)(F)OCCCCC2=O` are 3 nM, 3.1 nM and greater than 2220.
